Test results: publication PMC8165439, “Chymase Dependent Pathway of Angiotensin II Generation and Rapeseed Derived Peptides for Antihypertensive Treatment of Spontaneously Hypertensive Rats” (Frontiers in Pharmacology, 2021)

Experiments:
[1] = test system: spontaneously hypertensive rats (SHR); assay: Plasma and urine parameters during chronic treatment; type: in vivo, rat; conditions: mean ± SEM
Experimental: (§1) Systolic and diastolic blood pressure (SBP and DBP, respectively) and heart rate (HR) were measured in conscious unrestrained rats by telemetry technique, once a week for 24 h. 24 hour observations in metabolic cages (Tecniplast S. p.A. Buguggiate, Italy) were performed weekly. The diuresis, weight of feces, food and water intake were measured; urine and blood samples were collected on day 0, 7th and 14th, and were centrifuged at 1200 g (blood for 15 min and urine for 5 min), then the samples were stored at –80°C until analysis.
(§2) On day 0 all animals received saline (0.9% NaCl) and then, for 14 consecutive days, the substance tested. Chymostatin (CH, 2 mg/kg/day) was dissolved in DMSO and then diluted with PBS (final concentration of DMSO was 0.15%). Peptides RIY (7.5 mg/kg/day) and VWIS (12.5 mg/kg/day) were dissolved in saline (0.9% NaCl, S). The substances were administered through the femoral vein during 10 min in the volume of 0.5 ml to young SHR (infusion rate: 3 ml/h) and 1 ml to adult rats (infusion rate: 6 ml/h). Control rats received solvents (either DMSO or saline) in the same volume.
(§3) Urine volume was determined by gravimetric method. Sodium and potassium concentration in urine and plasma were measured by flame photometry (PFP7/C, Jenway Ltd, Stone, United Kingdom). Urine and plasma osmolality were measured by freezing point depression (Osmomat® 030 M, Gonotec, Berlin, Germany). These parameters were used to determine the excretion rates of total solutes (UosmV), sodium (UNaV) and potassium (UKV). Commercially available ELISA kits were used to measure nitric oxide metabolites (NOx, SunRed, Shanghai) and albumin (Albumin, ICL, Portland) concentration in urine. Excretion rate of NOx (UNOxV) and albumin (UAE) were calculated.

[2] = test system: spontaneously hypertensive rats (SHR); assay: Metabolic parameters in metabolic cages during chronic treatment; type: in vivo, rat; conditions: mean ± SEM
Experimental: as §1, §2, §3

[3] = adult SHR (SHR-16), day 0 (baseline)
[4] = adult SHR (SHR-16), day 7 of daily iv CH 2, RIY 7.5, VWIS 12.5 mg/kg/day
[5] = adult SHR (SHR-16), day 7 of daily iv treatment
[6] = adult SHR (SHR-16), day 14 of daily iv CH 2, RIY 7.5, VWIS 12.5 mg/kg/day
[7] = adult SHR (SHR-16), day 14 of daily iv treatment
[8] = young SHR (SHR-6), day 0 (baseline), CH n=8-10, RIY n=5, VWIS n=5-6
[9] = young SHR (SHR-6), day 0 (baseline)
[10] = young SHR (SHR-6), day 7 of daily iv CH 2, RIY 7.5, VWIS 12.5 mg/kg/day
[11] = young SHR (SHR-6), day 7 of daily iv treatment
[12] = young SHR (SHR-6), day 14 of daily iv CH 2, RIY 7.5, VWIS 12.5 mg/kg/day
[13] = young SHR (SHR-6), day 14 of daily iv treatment

Compound: CC(C)C[C@H](NC(=O)[C@@H](NC(=O)N[C@@H](Cc1ccccc1)C(=O)O)[C@@H]1CCN=C(N)N1)C(=O)N[C@H](C=O)Cc1ccccc1 [CH, chymostatin]
- Plasma osmolality ([1]; adult SHR (SHR-16), day 0 (baseline), CH n=5-8, RIY n=5-6, VWIS n=5-6): 307±2 mOsm/l
- Plasma K+ concentration [1, 3]: 4.39 ± 0.27 mmol/L
- Plasma Na+ concentration [1, 3]: 134.6 ± 2.6 mmol/L
- Potassium excretion [1, 3]: 1.28 ± 0.19 µmol/min
- Sodium excretion [1, 3]: 1.01 ± 0.13 µmol/min
- Total solute excretion [1, 3]: 7.05±0.90 µOsm/min
- Plasma osmolality [1, 4]: 299±2 mOsm/l
- Plasma K+ concentration [1, 5]: 4.21 ± 0.10 mmol/L
- Plasma Na+ concentration [1, 5]: 130.5 ± 2.3 mmol/L
- Potassium excretion [1, 5]: 1.24 ± 0.25 µmol/min
- Sodium excretion [1, 5]: 0.77 ± 0.23 µmol/min
- Total solute excretion [1, 5]: 7.11±1.34 µOsm/min
- Plasma osmolality [1, 6]: 294±5 mOsm/l
- Plasma K+ concentration [1, 7]: 3.95 ± 0.20 mmol/L
- Plasma Na+ concentration [1, 7]: 126.1 ± 1.0 mmol/L
- Potassium excretion [1, 7]: 1.71 ± 0.15 µmol/min
- Sodium excretion [1, 7]: 1.11 ± 0.33 µmol/min
- Total solute excretion [1, 7]: 7.04±1.15 µOsm/min
- Plasma osmolality [1, 8]: 303±3 mOsm/l
- Plasma K+ concentration [1, 9]: 4.34 ± 0.16 mmol/L
- Plasma Na+ concentration [1, 9]: 125.8 ± 2.1 mmol/L
- Potassium excretion [1, 9]: 0.48 ± 0.08 µmol/min
- Sodium excretion [1, 9]: 0.51 ± 0.09 µmol/min
- Total solute excretion [1, 9]: 2.94±0.68 µOsm/min
- Plasma osmolality [1, 10]: 297±3 mOsm/l
- Plasma K+ concentration [1, 11]: 4.61 ± 0.12 mmol/L
- Plasma Na+ concentration [1, 11]: 126.0 ± 2.3 mmol/L
- Potassium excretion [1, 11]: 0.95 ± 0.12 µmol/min
- Sodium excretion [1, 11]: 0.90 ± 0.12 µmol/min
- Total solute excretion [1, 11]: 6.05±1.16 µOsm/min
- Plasma osmolality [1, 12]: 295±6 mOsm/l
- Plasma K+ concentration [1, 13]: 3.98 ± 0.13 mmol/L
- Plasma Na+ concentration [1, 13]: 126.0 ± 1.6 mmol/L
- Potassium excretion [1, 13]: 1.01 ± 0.60 µmol/min
- Sodium excretion [1, 13]: 0.93 ± 0.47 µmol/min
- Total solute excretion [1, 13]: 7.82±0.47 µOsm/min
- Body weight ([2]; adult SHR (SHR-16), day 0 (baseline), CH n=8, RIY n=5-6, VWIS n=5-6): 271 ± 16 g
- Diuresis [2, 3]: 6.9 ± 1.9 µL/min
- Faeces [2, 3]: 9±1 g/24 h
- Food intake [2, 3]: 21±1 g/24 h
- Water intake [2, 3]: 29±3 g/24 h
- Body weight [2, 4]: 285 ± 17 g
- Diuresis [2, 5]: 7.4 ± 2.1 µL/min
- Faeces [2, 5]: 8±1 g/24 h
- Food intake [2, 5]: 17±1 g/24 h
- Water intake [2, 5]: 29±3 g/24 h
- Body weight [2, 6]: 298 ± 19 g
- Diuresis [2, 7]: 8.1 ± 2.9 µL/min
- Faeces [2, 7]: 9±1 g/24 h
- Food intake [2, 7]: 20±2 g/24 h
- Water intake [2, 7]: 29±4 g/24 h
- Body weight [2, 8]: 131 ± 10 g
- Diuresis [2, 9]: 6.1 ± 0.5 µL/min
- Faeces [2, 9]: 7±1 g/24 h
- Food intake [2, 9]: 15±1 g/24 h
- Water intake [2, 9]: 23±2 g/24 h
- Body weight [2, 10]: 159 ± 5 g
- Diuresis [2, 11]: 9.9 ± 1.4 µL/min
- Faeces [2, 11]: 11±1 g/24 h
- Food intake [2, 11]: 18±2 g/24 h
- Water intake [2, 11]: 29±5 g/24 h
- Body weight [2, 12]: 196 ± 4 g
- Diuresis [2, 13]: 10.0 ± 0.9 µL/min
- Faeces [2, 13]: 12±1 g/24 h
- Food intake [2, 13]: 20±2 g/24 h
- Water intake [2, 13]: 32±3 g/24 h
